# In a melting point compilation (Tetko et al.; mined from patent text by program, amines drawn as free bases though some values may be those of a salt):
row,melting point,Structure (SMILES)
1,259 to 260 °C,CCNC(=O)c1[nH]c2ccc(Cl)cc2c1S(=O)(=O)c1ccccc1
2,113 to 115 °C,CC(=O)OCc1ccc2sc(S(N)(=O)=O)cc2c1
3,101 to 102 °C,O=[N+]([O-])c1cccc(-n2ccnc2)c1
4,135 to 137 °C,CC(C)(O)c1ccc(CC(=O)Nc2cccnc2Oc2ccc(F)cc2)cc1
5,50 °C,CCC(O)C1CCNCC1 (centres undefined)
6,109 to 110 °C,CCCCCCCC/C(=C\C=C\C(=O)O)c1ccc(OC)cc1
7,178 to 180 °C,CCNC(=S)NS(=O)(=O)c1cc2c(cc1OCC)OCCC2CNC(=O)N1CC(C)=C(CC)C1=O (centres undefined)
8,163 to 165 °C,COc1ccccc1-c1cc(NC(=O)[C@H]2CCCNC2)ncn1
9,254 to 256 °C,NS(=O)(=O)c1ccc(-n2nc(C(F)(F)F)cc2-c2nc3ccccc3s2)cc1
10,166 to 167 °C,Cc1c(C(O)Cc2ccccc2)cc(I)[nH]c1=O (centres undefined)
11,161 to 164 °C,Nc1ncc(-c2ccccc2)nc1Sc1ccc(F)cc1
12,98 to 100 °C,CCOC(=O)Cc1cc(O)nc(N(CC)CC)n1
13,100 °C,COc1cccc(C(O)c2cc(Cl)ccc2N(CC(N)=O)S(=O)(=O)c2ccc(OC)c(OC)c2)c1 (centres undefined)
14,148 to 152 °C,CCOc1ccc(N(c2ccccc2)C2(c3ccc(N(CC)Cc4ccccc4)cc3)OC(=O)c3cc(N(C)C)ccc32)cc1 (centres undefined)
15,170 to 172 °C,Cc1cc(C(N)=O)nn1CCO
16,104 to 106 °C,O=C1C(=O)c2ccccc2C2=C1SCC1(CCN(Cc3ccc(F)cc3)CC1)O2
17,140 to 142 °C,CCOc1cc2c(cc1OCC)-c1c(OCC)c(OCC)cc3c1C(C2)N(C)CC3O (centres undefined)
18,226 to 230 °C,CN1CCC[C@H]1c1cnc(Cl)cc1C(O)(c1ccc(C(C)(C)C)cc1)c1ccc(C(C)(C)C)cc1
19,89 °C,COc1ccc(CN2C(=O)C(C)(c3cc(C(=O)N(C)CC(F)(F)F)ccc3Cl)c3cc(Cl)ccc32)c(OC)c1 (centres undefined)
20,130 to 134 °C,CN(C)C=C(C#N)C=NN(C)C
21,176 to 178 °C,COc1ccnc(CCc2nc3c(C)cc(C)nc3[nH]2)c1
22,188 to 189 °C,C=C(C)C1=CC(C)(C)Oc2c(OCC)cc(Cc3cnc(N)nc3N)cc21
23,160 to 161 °C,CS(=O)(=O)c1ccc(-c2cocc2-c2ccc(F)cc2)cc1
24,225 to 230 °C,CN(C)C=CC(=O)c1ccc(C(=O)N2Cc3ccnn3Cc3ccccc32)cc1
25,193 to 194 °C,O=C1NC(=O)c2c1c(-c1ccccc1)cc1[nH]c3ccc(OP(=O)(OCc4ccccc4)OCc4ccccc4)cc3c21

row,melting point,Structure (SMILES)
1,168 to 169 °C,CC(C)(C)c1cc(CCc2ccccc2NC(=O)NC2CCCc3ccccc32)cc(C(C)(C)C)c1O (centres undefined)
2,105 to 108 °C,CCOC(=O)C1=C(C)NC(c2cscn2)=NC1c1cccc(Cl)c1 (centres undefined)
3,54 to 57 °C,COC(=O)c1ccc(N(C)C)cc1C(=O)OC
4,180 to 181 °C,C#CCN(C(CCn1c(=O)[nH]c(C)c(C)c1=O)C(=O)NO)S(=O)(=O)c1ccc(Oc2ccccc2)cc1 (centres undefined)
5,131 to 134 °C,N#Cc1cc(C(=O)NNC(=O)c2occc2-c2cccc(OCCc3ccccc3)c2)ccc1O
6,135 °C,NCc1ccc(N2CC(CN3CCC(CC(=O)O)CC3)OC2=O)cc1 (centres undefined)
7,153 to 155 °C,O=C1CCCC(=O)N1c1ccncc1
8,240 to 241 °C,O=C1NCCc2c(-c3cccc(Oc4ccc(F)cc4)c3)[nH]c3cccc1c23
9,94 °C,Cc1ccccc1-c1cccc2c1CCn1cc(-c3ccccc3)nc1C2OC1CCN(C)CC1 (centres undefined)
10,71 °C,c1cc(-c2nccs2)nc(C2OCCO2)c1
11,62 to 65 °C,CC(N=C(O)C(Cl)=C(Cl)C(=O)O)c1ccccc1 (centres undefined)
12,73 to 75 °C,CCOC(=O)[C@@H](CO)NCc1c(N)cccc1Cl
13,88 °C,Cc1ccc(C#Cc2cccc(N)c2)cc1
14,207 °C,C#CCNC(=O)c1nn(-c2c(Cl)cc(C(F)(F)F)cc2Cl)c(N)c1S(=O)C(F)(F)F (centres undefined)
15,207 to 210 °C,O=C1C(c2cc3c(cc2O)OCCC3)c2ccccc2N1C(c1ccccc1)c1ccccc1 (centres undefined)
16,59 to 61 °C,Cc1cccc(C(=O)NCN2CCN(c3cccc(C#N)c3)CC2)c1
17,139 to 140 °C,Cn1nc2c(cc1=O)CCSc1ccccc1-2
18,229 °C,CC(C)(C)OC(=O)N1CCCC(C2=C(C#N)C(c3cccc4nonc34)c3c[nH]nc3N2)C1 (centres undefined)
19,97 to 98 °C,CON=C(C(=O)OC)C1=C(C(=O)c2ccc(F)cc2)CC(C)=C(C)C1
20,122 °C,Cc1ccc(-c2ccccc2S(N)(=O)=O)cc1
21,203 to 204 °C,CCn1cc(C(=O)O)c(=O)c2c(C)c(F)c(F)c(F)c21
22,119 to 121 °C,CC(O)C(C)C1=C2C(C)(C)C3CCC2(C3)C(C)(C)CC1 (centres undefined)
23,101 °C,O=C1c2ccccc2C(=O)N1CCCSc1ncco1
24,212 °C,CC(=O)Nc1ccc(Cl)c(O)c1
25,188 to 190 °C,N#Cc1cnc(-c2ccccc2OCC2CC2)[nH]c1=O

row,melting point,Structure (SMILES)
1,> 240 °C,CC(C)n1nc(-c2c(-c3ccccc3)nn3ccc(N4CCN(c5ccccc5)CC4)cc23)ccc1=O
2,273 to 278 °C,O=C(C=CC(F)(F)F)Nc1ccc2ncnc(Nc3cccc(Br)c3)c2c1
3,74 to 77 °C,N#CC(=CN1CCOCC1)C(C[N+](=O)[O-])c1cccc(Cl)c1Cl (centres undefined)
4,207 °C,OCC1OC(n2cnc3c(Nc4ccccc4Cl)ccnc32)C(O)C1O (centres undefined)
5,219 to 222 °C,O=CCCC[C@@H](C(=O)O)N1C(=O)c2ccccc2C1=O
6,234 to 236 °C,COc1ccc2cc(CC(N)=O)ccc2c1
7,162 to 164 °C,Nc1cccnc1Nc1ccc(Cl)cc1C(=O)c1ccccc1Cl
8,69 to 70 °C,CCCCCCCC(=O)OCCc1c(-c2ccccc2)nc(NC(C)=O)n2ncnc12
9,130 to 131 °C,CCOC(=O)CC(=O)c1cc(F)c(N=[N+]=[N-])nc1Nc1ccc(F)cc1F
10,91 to 95 °C,COC(=O)c1cccc(CBr)c1[N+](=O)[O-]
11,128 to 139 °C,CS(=O)(=O)NC1CCN(C(=O)Cn2nc(-c3ccncc3)cc2Cc2ccc(F)cc2)CC1
12,218 °C,CC(=O)NC(=Cc1cccs1)C1=NC(=Cc2cccs2)C(=O)O1
13,> 260 °C,Cc1[nH]c(=O)c(-c2csc(-c3ccnc(NCCNC(C)C)c3)n2)cc1C(=O)NCCNC(C)C
14,133 to 135 °C,COc1ccc(-c2nc(CNC(=O)c3ccc4n3Cc3ccccc3N(C(=O)c3ccc(-c5ccccc5C)c(C)c3)C4)no2)cc1
15,77 to 78 °C,CCCC[C@H](NC(=O)[C@H](CC(C)C)NC(=O)c1ccccc1OC)C(=O)CSCc1ccco1
16,127 to 129 °C,CCOC(=O)CCCCOc1ccc([N+](=O)[O-])c(C=C2NC(=O)NC2=O)c1
17,122 to 123 °C,COc1ccc(C2(C#Cc3cccc(-c4nc(C)no4)c3)CCCC(=O)C2)cc1OC1CCCC1 (centres undefined)
18,84 °C,Nc1c(Br)cc([N+](=O)[O-])cc1C(F)(F)F
19,164 to 166 °C,OCc1ccccc1-c1ccc2nc(-c3ccc(Cl)cc3)cn2c1
20,160 °C,COc1ccc(-c2cccc3c2C(=O)OC(C)(C)O3)cn1
21,120 °C,COC(=O)NC(=O)C(Cc1ccc(OCCc2nc(-c3ccccc3)oc2C)cc1)C(=O)OC (centres undefined)
22,82 to 82.5 °C,CN1CCN(c2cccc3ccc(OC(=O)c4ccccc4)cc23)CC1
23,192 to 194 °C,CCc1[nH]c(=O)n(-c2cc(C(=O)OC(C)C)c(Cl)cc2F)c(=O)c1C
24,77 to 79 °C,CC(=O)OCC1CCc2cc3ccccc3n2CC1 (centres undefined)
25,149 to 150 °C,O=C(Nc1ccc(-n2nc(C(F)(F)F)cc2OC(F)F)cc1)c1cccnc1F

row,melting point,Structure (SMILES)
1,62 to 63 °C,COc1ccc(Cc2nc(N(C)CCO)c3c(C)c(C#N)sc3n2)cc1OC
2,128 °C,CC(=O)c1cc(NC(=O)NCCCC(C)CNC(=O)Nc2cc(C(C)=O)cc(C(C)=O)c2)cc(C(C)=O)c1 (centres undefined)
3,149 °C,O=C(c1ccncc1)c1cc(-c2ccccc2)c(N2CCOCC2)s1
4,94 to 96 °C,COc1ccc(-c2ccncc2)cc1
5,112 °C,CC(C)(C)c1ccc(O[C@@H]2CCC[C@H]2O)c(C(C)(C)C)c1 (relative stereo)
6,> 300 °C,O=C(Nc1cccc2c1C(=O)c1c-2n[nH]c1-c1ccc(C(=O)N2CCCC2)s1)NN1CCOCC1
7,149 to 152 °C,Cc1cccc(C2(Cn3cncn3)CC(COc3ccccc3[N+](=O)[O-])ON2C)c1 (centres undefined)
8,163 to 165 °C,Cc1ccc(-n2cnc(OC(C)C(=O)O)n2)cc1 (centres undefined)
9,166 to 168 °C,O=C1c2cccc(-c3ccccc3)c2C(=O)C1c1ccccc1 (centres undefined)
10,179 to 182 °C,CC(C)c1n[nH]c2c(NCc3ccco3)ncnc12
11,112 to 113 °C,COc1ccc(-c2csc(C(=O)O)n2)cc1OC1CC2CCC1C2 (centres undefined)
12,134 to 137 °C,CC(=O)OC(=O)c1ccc(N2C(=O)NC(N(CC(C)C)C(C)=O)NC2=O)cc1
13,153 to 155 °C,CCOC(=O)c1sc(C)c2nc(OCC)n(Cc3ccc(-c4ccccc4C#N)cc3)c12
14,172 to 176 °C,CCn1ccc2ncnc(Oc3ccc(NC(=O)Nc4cccc(C(F)(F)F)c4)c(Cl)c3)c21
15,80 to 83 °C,CCOC(=O)C(=O)C(NC(=O)c1ccccc1)c1ccccc1 (centres undefined)
16,230 to 234 °C,O=C1N=NN=C2N=CN=C12
17,252 to 253 °C,Cc1nnc(-c2ccc3occ(C(=O)O)c3c2)o1
18,97 to 99 °C,CCOC(=O)C1(C(=O)OCC)Cc2ccc(OC)c(Cl)c2O1
19,150 to 151 °C,Cc1oc(-c2ccccc2)nc1COc1cccc(CSc2ccc(CC(=O)O)cc2Cl)c1
20,182 to 189 °C,Cc1cc(C2=NN(c3nncs3)C(C)Cc3cc4c(cc32)OCO4)ccc1[N+](=O)[O-] (centres undefined)
21,102 °C,O=C(O)Cc1cc(C(=O)c2ccccc2F)ccc1O
22,123 to 125 °C,O=C(O)COCCCCS(=O)(=O)c1cnc(-c2ccccc2)c(-c2ccccc2)n1

row,Structure (SMILES),melting point
1,C=C1N(CCC)C(=O)OC12CCNCC2,106 to 108 °C
2,CN1Cc2c(-c3nc(C4CC4)no3)ncn2-c2ccccc2C1=O,202 to 203 °C
